Reference: the supplement of paper PMC10307832

Legend:
Assay in all cases: relative viability (nuclei count vs DMSO), 5 days (fraction); higher = more cells survive
LC-2-ad = system: LC-2-ad
Outline: (§1)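 Lung cancer cell lines were seeded in 1536-well plates and dosed by pin tool the next day, with either a single drug or a fixed anchor-drug dose combined with five library-drug doses (not always all listed) spaced in √10 steps. Five days later, one step fixed the cells and stained their nuclei (final 0.05% Triton X-100, 1% formaldehyde, 1 ug/ml Hoechst), and nuclei were counted on 4× images. Relative viability is the nuclei count in treated wells divided by the count in vehicle wells, and each value is the median of duplicate plates.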

NCI-H2228 = system: NCI-H2228
Outline: as §1

NCI-H650 = system: NCI-H650
Outline: as §1

SK-MES-1 = system: SK-MES-1
Outline: as §1

UMC-11 = system: UMC-11
Outline: as §1

NCI-H2347 = system: NCI-H2347
Outline: as §1

NCI-H1355 = system: NCI-H1355
Outline: as §1

NCI-H1993 = system: NCI-H1993
Outline: as §1

NCI-H1734 = system: NCI-H1734
Outline: as §1

NCI-H1975 = system: NCI-H1975
Outline: as §1

A-427 = system: A-427
Outline: as §1

NCI-H1755 = system: NCI-H1755
Outline: as §1

NCI-H23 = system: NCI-H23
Outline: as §1

LCLC-103H = system: LCLC-103H
Outline: as §1

RERF-LC-KJ = system: RERF-LC-KJ
Outline: as §1

NCI-H1915 = system: NCI-H1915
Outline: as §1

NCI-H2170 = system: NCI-H2170
Outline: as §1

SW 1573 = system: SW 1573
Outline: as §1

HCC-366 = system: HCC-366
Outline: as §1

NCI-H1792 = system: NCI-H1792
Outline: as §1

SK-LU-1 = system: SK-LU-1
Outline: as §1

HCC-827 = system: HCC-827
Outline: as §1

`CCNC(=O)c1noc(-c2cc(C(C)C)c(O)cc2O)c1-c1ccc(CN2CCOCC2)cc1` [Luminespib] + CS(=O)(=O)N1CCN(Cc2cc3nc(-c4cccc5[nH]ncc45)nc(N4CCOCC4)c3s2)CC1 [Pictilisib] (partner 1 µM) was tested, and the relative viability (LC-2-ad; first compound 0.002 µM) was 0.526, the relative viability (LC-2-ad; first compound 0.006325 µM) was 0.477 and the relative viability (LC-2-ad; first compound 0.02 µM) was 0.276. For the same molecule, the relative viability (LC-2-ad; first compound 0.06325 µM) was 0.11, the relative viability (LC-2-ad; first compound 0.2 µM) was 0.0708 and the relative viability (NCI-H2228; first compound 0.002 µM) was 0.496. For the same molecule, the relative viability (NCI-H2228; first compound 0.006325 µM) was 0.373, the relative viability (NCI-H2228; first compound 0.02 µM) was 0.122 and the relative viability (NCI-H2228; first compound 0.06325 µM) was 0.168. For the same molecule, the relative viability (NCI-H2228; first compound 0.2 µM) was 0.108, the relative viability (NCI-H650; first compound 0.002 µM) was 1.09 and the relative viability (NCI-H650; first compound 0.006325 µM) was 0.851. The relative viability (NCI-H650; first compound 0.02 µM) was 0.477, the relative viability (NCI-H650; first compound 0.06325 µM) was 0.209 and the relative viability (NCI-H650; first compound 0.2 µM) was 0.127. The relative viability (SK-MES-1; first compound 0.002 µM) was 0.36, the relative viability (SK-MES-1; first compound 0.006325 µM) was 0.418 and the relative viability (SK-MES-1; first compound 0.02 µM) was 0.271. The relative viability (SK-MES-1; first compound 0.06325 µM) was 0.114, the relative viability (SK-MES-1; first compound 0.2 µM) was 0.106 and the relative viability (UMC-11; first compound 0.002 µM) was 0.43. For the same molecule, the relative viability (UMC-11; first compound 0.006325 µM) was 0.764, the relative viability (UMC-11; first compound 0.02 µM) was 0.261 and the relative viability (UMC-11; first compound 0.06325 µM) was 0.603. The relative viability (UMC-11; first compound 0.2 µM) was 0.185, the relative viability (NCI-H2347; first compound 0.002 µM) was 0.751 and the relative viability (NCI-H2347; first compound 0.006325 µM) was 0.609. It also gave a relative viability (NCI-H2347; first compound 0.02 µM) of 0.45, a relative viability (NCI-H2347; first compound 0.06325 µM) of 0.54 and a relative viability (NCI-H2347; first compound 0.2 µM) of 0.4. It also gave a relative viability (NCI-H1355; first compound 0.002 µM) of 0.411, a relative viability (NCI-H1355; first compound 0.006325 µM) of 0.458 and a relative viability (NCI-H1355; first compound 0.02 µM) of 0.255. For the same molecule, the relative viability (NCI-H1355; first compound 0.06325 µM) was 0.143, the relative viability (NCI-H1355; first compound 0.2 µM) was 0.152 and the relative viability (NCI-H1993; first compound 0.002 µM) was 0.85. It also gave a relative viability (NCI-H1993; first compound 0.006325 µM) of 0.836, a relative viability (NCI-H1993; first compound 0.02 µM) of 0.744 and a relative viability (NCI-H1993; first compound 0.06325 µM) of 0.787. The relative viability (NCI-H1993; first compound 0.2 µM) was 0.643, the relative viability (NCI-H1734; first compound 0.002 µM) was 0.519 and the relative viability (NCI-H1734; first compound 0.006325 µM) was 0.43. It also gave a relative viability (NCI-H1734; first compound 0.02 µM) of 0.329, a relative viability (NCI-H1734; first compound 0.06325 µM) of 0.14 and a relative viability (NCI-H1734; first compound 0.2 µM) of 0.146. The relative viability (NCI-H1975; first compound 0.002 µM) was 0.26, the relative viability (NCI-H1975; first compound 0.006325 µM) was 0.257 and the relative viability (NCI-H1975; first compound 0.02 µM) was 0.135. It also gave a relative viability (NCI-H1975; first compound 0.06325 µM) of 0.115, a relative viability (NCI-H1975; first compound 0.2 µM) of 0.106 and a relative viability (A-427; first compound 0.002 µM) of 0.62. For the same molecule, the relative viability (A-427; first compound 0.006325 µM) was 0.634, the relative viability (A-427; first compound 0.02 µM) was 0.441 and the relative viability (A-427; first compound 0.06325 µM) was 0.733. For the same molecule, the relative viability (A-427; first compound 0.2 µM) was 0.35, the relative viability (NCI-H1755; first compound 0.002 µM) was 0.399 and the relative viability (NCI-H1755; first compound 0.006325 µM) was 0.372. For the same molecule, the relative viability (NCI-H1755; first compound 0.02 µM) was 0.351, the relative viability (NCI-H1755; first compound 0.06325 µM) was 0.136 and the relative viability (NCI-H1755; first compound 0.2 µM) was 0.105. It also gave a relative viability (NCI-H23; first compound 0.002 µM) of 0.475, a relative viability (NCI-H23; first compound 0.006325 µM) of 0.486 and a relative viability (NCI-H23; first compound 0.02 µM) of 0.374. The relative viability (NCI-H23; first compound 0.06325 µM) was 0.134, the relative viability (NCI-H23; first compound 0.2 µM) was 0.157 and the relative viability (LCLC-103H; first compound 0.002 µM) was 0.629. The relative viability (LCLC-103H; first compound 0.006325 µM) was 0.5, the relative viability (LCLC-103H; first compound 0.02 µM) was 0.466 and the relative viability (LCLC-103H; first compound 0.06325 µM) was 0.651. For the same molecule, the relative viability (LCLC-103H; first compound 0.2 µM) was 0.271, the relative viability (RERF-LC-KJ; first compound 0.002 µM) was 0.665 and the relative viability (RERF-LC-KJ; first compound 0.006325 µM) was 0.636. The relative viability (RERF-LC-KJ; first compound 0.02 µM) was 0.375, the relative viability (RERF-LC-KJ; first compound 0.06325 µM) was 0.231 and the relative viability (RERF-LC-KJ; first compound 0.2 µM) was 0.182. For the same molecule, the relative viability (NCI-H1915; first compound 0.002 µM) was 0.939, the relative viability (NCI-H1915; first compound 0.006325 µM) was 0.729 and the relative viability (NCI-H1915; first compound 0.02 µM) was 0.567. For the same molecule, the relative viability (NCI-H1915; first compound 0.06325 µM) was 0.827, the relative viability (NCI-H1915; first compound 0.2 µM) was 0.062 and the relative viability (NCI-H2170; first compound 0.002 µM) was 0.304. It also gave a relative viability (NCI-H2170; first compound 0.006325 µM) of 0.313, a relative viability (NCI-H2170; first compound 0.02 µM) of 0.223 and a relative viability (NCI-H2170; first compound 0.06325 µM) of 0.165. For the same molecule, the relative viability (NCI-H2170; first compound 0.2 µM) was 0.155, the relative viability (SW 1573; first compound 0.002 µM) was 0.508 and the relative viability (SW 1573; first compound 0.006325 µM) was 0.619. It also gave a relative viability (SW 1573; first compound 0.02 µM) of 0.428, a relative viability (SW 1573; first compound 0.06325 µM) of 0.145 and a relative viability (SW 1573; first compound 0.2 µM) of 0.105. It also gave a relative viability (HCC-366; first compound 0.002 µM) of 0.159, a relative viability (HCC-366; first compound 0.006325 µM) of 0.156 and a relative viability (HCC-366; first compound 0.02 µM) of 0.116. It also gave a relative viability (HCC-366; first compound 0.06325 µM) of 0.0429, a relative viability (HCC-366; first compound 0.2 µM) of 0.0407 and a relative viability (NCI-H1792; first compound 0.002 µM) of 0.302. It also gave a relative viability (NCI-H1792; first compound 0.006325 µM) of 0.273, a relative viability (NCI-H1792; first compound 0.02 µM) of 0.13 and a relative viability (NCI-H1792; first compound 0.06325 µM) of 0.124. For the same molecule, the relative viability (NCI-H1792; first compound 0.2 µM) was 0.0905, the relative viability (SK-LU-1; first compound 0.002 µM) was 0.582 and the relative viability (SK-LU-1; first compound 0.006325 µM) was 0.403. The relative viability (SK-LU-1; first compound 0.02 µM) was 0.243, the relative viability (SK-LU-1; first compound 0.06325 µM) was 0.161 and the relative viability (SK-LU-1; first compound 0.2 µM) was 0.121. For the same molecule, the relative viability (HCC-827; first compound 0.002 µM) was 0.949, the relative viability (HCC-827; first compound 0.006325 µM) was 1.02 and the relative viability (HCC-827; first compound 0.02 µM) was 0.802. The relative viability (HCC-827; first compound 0.06325 µM) was 0.555 and the relative viability (HCC-827; first compound 0.2 µM) was 0.551.
